Data taken from ChEMBL document CHEMBL3232880, “The chemistry and biology of febrifugine and halofuginone” (Bioorg Med Chem, 2014).

Legend:
Plasmodium berghei = assay: Antimalarial activity against Plasmodium berghei infected in mouse; format: functional
Plasmodium falciparum [1] = assay: Antimalarial activity against Plasmodium falciparum assessed as growth inhibition; format: functional, organism-based
Plasmodium falciparum [2] = assay: Antimalarial activity against chloroquine-sensitive Plasmodium falciparum FCR-3 assessed as growth inhibition; format: functional, organism-based

Structure (SMILES) | ED50 (Plasmodium berghei) [mg/kg/day] | EC50 (Plasmodium falciparum [1]) [nM] | EC50 (Plasmodium falciparum [2]) [nM]
O=C(C[C@H]1NCCC[C@@H]1O)Cn1cnc2ccc(O)cc2c1=O | 0.3 |  | 
O=c1c2ccccc2ncn1C[C@@H]1C[C@@H]2[C@@H](O)CCCN2CO1 |  | 3.7 | 
COCO[C@H]1CCCN2CO[C@H](Cn3cnc4ccccc4c3=O)C[C@H]12 |  | 8.6 | 
CC(=O)O[C@H]1CCCN(C(C)=O)[C@@H]1CC(=O)Cn1cnc2ccccc2c1=O |  | 910 | 
CCOC(=O)N1CCC[C@H](O)[C@H]1CC(=O)Cn1cnc2ccccc2c1=O |  | 4800 | 
O=C(C[C@H]1NCCCC1=O)Cn1cnc2ccccc2c1=O |  | 20 | 
O=C(C[C@H]1NCC[C@H](O)[C@@H]1O)Cn1cnc2ccccc2c1=O | 2.4 |  | 
O=C(C[C@@H]1NCCC[C@H]1O)Cn1cnc2ccccc2c1=O (stereo in doubt; (+)-1) [FEBRIFUGINE] | 0.6 |  | 0.076
O=C(C[C@@H]1NCCC[C@H]1O)Cn1cnc2ccccc2c1=O (stereo in doubt; (-)-1) [FEBRIFUGINE] |  |  | 200
